Data taken from US20150282489A1, “SYNERGISTIC FUNGICIDAL COMPOSITIONS CONTAINING LACTOPEROXIDASE SYSTEM” (DSM IP ASSETS B.V., priority 2012, published 2015).

What was measured:
[1] = system: powdery mildew spores (spores of Oidium neolycopersici); assay: Treatment of tomato plants against mildew disease (Example 1, natamycin and lactoperoxidase system mixed before application); type: in vivo, Oidium neolycopersici on tomato plants
Procedure: (§1) Tomato plants were grown in a greenhouse using well known methods. Twenty-five days after planting, the tomato plants were inoculated with powdery mildew spores (spores of Oidium neolycopersici). Fourteen days after the tomato plants were inoculated with the spores, the plants were treated with: a) a composition comprising natamycin (1500 ppm), b) a composition comprising a lactoperoxidase system, or c) a composition comprising natamycin (1500 ppm) and a lactoperoxidase system (natamycin and the lactoperoxidase system were mixed before application to the tomato plants). As a control, untreated tomato plants were used. All compositions comprising natamycin comprised glycerol (2.5 ml/l ) and polyether trisiloxane (BREAK-TRU®; 0.25 ml/l ). The lactoperoxidase system comprised lactoperoxidase, potassium iodide, potassium thiocyanate and a hydrogen peroxide source. When the lactoperoxidase system was used alone, ADDIT, a rapeseed-oil based adjuvant, was added to the lactoperoxidase system. The tomato plants were sprayed with 2000 lof the respective composition per ha, corresponding to a rate of about 130 ml of the respective composition per plant. The trial was performed on four plots with each plot containing 5 tomato plants. Powdery mildew growth was assessed in a twofold manner: (i) the number of visible colonies on 2 marked leafs of each tomato plant were counted; and (ii) the antifungal activity (in %) of the individual and combined active ingredients was determined by calculating the reduction in mould growth observed on the marked leafs of the tomato plants that were treated with the antifungal composition in comparison to the mould growth on the marked leafs of the tomato plants that were treated with the control composition. The expected antifungal activity (E in %) of the combined antifungal composition comprising both active ingredients was calculated according to the Colby equation (Colby, 1967): E=X+Y−[(X·Y)/100] wherein X and Y are the observed antifungal activities (in %) of the individual active ingredients X and Y, respectively. If the observed antifungal activity (O in %) of the combination exceeds the expected antifungal activity (E in %) of the combination and the synergy factor O/E is thus >1.0, the combined application of the active ingredients leads to a synergistic antifungal effect.

[2] = system: powdery mildew spores (spores of Oidium neolycopersici); assay: Treatment of tomato plants against mildew disease (Example 2, lactoperoxidase system applied first, natamycin after one hour); type: in vivo, Oidium neolycopersici on tomato plants
Procedure: as §1, with “with:” for “with: a) a composition comprising natamycin (1500 ppm), b) a composition comprising a lactoperoxidase system, or c) a composition comprising natamycin (1500 ppm) and a lactoperoxidase system (natamycin and the lactoperoxidase system were mixed before application to the tomato plants). As a control, untreated tomato plants were used.”, “effect. The experiment was done as described in Example 1, with the proviso that first of all the lactoperoxidase system was applied to the tomato plants and after one hour (when the tomato plants were dry again) the natamycin composition was applied.” for “effect.”

C[C@@H]1C/C=C/C=C/C=C/C=C/[C@H](O[C@@H]2O[C@H](C)[C@@H](O)[C@H](N)[C@@H]2O)C[C@@H]2O[C@](O)(C[C@@H](O)C[C@H]3O[C@@H]3/C=C/C(=O)O1)C[C@H](O)[C@H]2C(=O)O [Natamcyin, natamycin]
Change in visible fungal colonies at 9 days after application ([1]; 9 days after application of the respective compositions): increase in visible fungal colonies
Average number of fungal colonies per tomato leaf, Day 9 ([1]; 9 days after application, natamycin 1500 ppm, spray 2000 l/ha): 11.9
Average number of fungal colonies per tomato leaf, Day −1 ([1]; one day before application of the composition (baseline), natamycin 1500 ppm, spray 2000 l/ha): 6.1
Average number of fungal colonies per tomato leaf, Day 9 corrected for Day −1 ([1]; positive = increase, negative = decrease from day −1 to day 9, natamycin 1500 ppm): 5.8
Change in visible fungal colonies at 9 days after application ([2]; 9 days after application, combination applied sequentially): increase in visible fungal colonies
Average number of fungal colonies per tomato leaf, Day 9 ([2]; 9 days after application, combination: lactoperoxidase system first, natamycin after one hour): 11.9
Average number of fungal colonies per tomato leaf, Day −1 ([2]; one day before application (baseline), combination applied sequentially): 6.1
Average number of fungal colonies per tomato leaf, Day 9 corrected for Day −1 ([2]; positive = increase, negative = decrease from day −1 to day 9, combination applied sequentially): 5.8
